In patent publication US9586914B2, “Modulators of C3a receptors” (THE UNIVERSITY OF QUEENSLAND, priority 2011, dated 2017):
“Also recorded” adds a separate entry of the source.

Tests used:
[1] = molecular target: T1, C3a receptor (C3aR) (Homo sapiens, UniProt Q16581); experiment: Competitive binding with [^125I]-C3a in HMDM; settings: Table 6, competitive binding with [^125I]-C3a, HMDM
T1 construct: peripheral blood mononuclear cells were isolated from buffy coat (obtained from Australian Red Cross Blood Service, Kelvin Grove); endogenous in cells; host or cells: primary human monocyte-derived macrophages (HMDM) differentiated from CD14+ monocytes of donor buffy coat
T1 sequence (Q16581 1-482): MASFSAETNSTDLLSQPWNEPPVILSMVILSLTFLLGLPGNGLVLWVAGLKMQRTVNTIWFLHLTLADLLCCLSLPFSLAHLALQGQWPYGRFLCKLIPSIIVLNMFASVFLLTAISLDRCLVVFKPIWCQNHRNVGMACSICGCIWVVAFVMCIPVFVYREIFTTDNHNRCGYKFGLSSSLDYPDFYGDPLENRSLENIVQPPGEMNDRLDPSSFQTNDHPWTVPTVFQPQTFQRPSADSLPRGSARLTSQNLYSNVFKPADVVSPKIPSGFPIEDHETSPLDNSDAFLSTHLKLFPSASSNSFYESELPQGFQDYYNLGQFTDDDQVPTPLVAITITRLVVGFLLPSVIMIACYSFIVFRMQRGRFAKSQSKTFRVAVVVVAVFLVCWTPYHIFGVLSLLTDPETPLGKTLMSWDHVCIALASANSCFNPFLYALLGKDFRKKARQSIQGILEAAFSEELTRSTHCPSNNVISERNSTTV
Method in brief: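 IC50 values are geometric means, with −log IC50 computed per experiment and given as arithmetic mean ± SE. Cells were CD14+ monocytes from buffy-coat PBMC, differentiated to macrophages and used on day 7. Unbound label was removed by GF/B filtration with 3 cold washes in 50 mM Tris-HCl pH 7.4.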

[2] = system: IL1B, IL8, CCL3, EGR1, FOSB and TNF gene expression in HMDMs; experiment: Regulation of inflammatory genes in HMDM (qRT-PCR); assay type: cell-based, human; settings: HMDMs, 300 nM, 30 minutes; qRT-PCR, fold change from control
From the text: Human monocyte-derived macrophages (HMDMS) were isolated from buffy coat of anonymous donors provided by the Australian Red Cross Blood Service at Kelvin Grove, Queensland, Australia. White blood cells were separated from other blood components into different layers using Ficoll-Paque Plus Density Centrifugation (GE Healthcare Bio-Science, Uppsala, Sweden) according to manufacturer's instruction. The isolated white blood cells were repeatedly washed with ice-cold water to remove contaminating erythrocytes. CD14^+ monocytes were positively selected from white blood cells using CD14^+ Macs Magnetic Beads (Miltenyi biotech, Auburn, Calif., USA) after successive magnetic sorting and washings. CD14^+ monocytes (1.5×10^6 cells/mL) were seeded in 10 mL of IMDM supplemented with 10% fetal calf serum (FBS), 10 U/mL streptomycin, 10 U/mL penicillin and 2 mmol L-glutamine (Invitrogen). To generate HMDMS, […] of recombinant human macrophage colony stimulating factor (M-CSF) (Peprotech Inc., rocky Hill, N.J., USA) was added for differentiation. HMDMS were maintained at 37° C. in a humidified incubator with 5% CO2 for a week to fully differentiate. At day 7, the adhered HMDMS were harvested by gentle scraping in saline solution.
HMDMs (2×10^6) in 2 mL of IMDM medium were transferred into each well on a 6-well plate. The cells were left to incubate for 6 h to allow adhesion before being serum starved in serum free IMDM to reduce background noise of the C3a treatment. In the time response experiment, cells were treated with 10 nM of C3a or agonist (compound 8 or 64) for 0.5, 1, 2 or 6 h. In concentration response experiments, cells were treated with 1, 10, 100 or 300 nM for 1 h. To prepare the samples for the microarray experiments, cells were treated with agonist at 100-300 nM for 30 min or 1 h in the absence or presence of the antagonist (e.g. SB-290157 or antagonists). […] Cells were washed with saline solution at the end of each treatment before the RNA extraction step.
Total RNA was extracted from cells using RNeasy Mini Plus kit (Qiagen, USA) according to the manufacturer's instructions. The concentration of the RNA was determined by measuring absorbance at λ=260/280 […] on a nanodrop spectrophotometer (Thermo Scientific), according to the manufacturer's instructions.
Total RNA (2-5 μg) was reverse transcribed with Superscript III (Invitrogen, USA) using random oligo dT primer. Reagents were incubated (50 min, 50° C.; then 10 min, 70° C.) in thermal cyclers (Bio-Rad) to complete the reaction, cDNA samples were stored at −20° C. until further use. All RNA work was performed on ice (4° C.) to prevent degradation of the RNA samples.
cDNA (0.5 μg) samples were prepared with 5 μL SYBR® Green PCR master mix (Applied Biosystems™, CA, USA), 2 μL relevant primers (2 μM) and 1 μL dH2O before being analysed using an ABI 7900HT Fast Real-Time PCR System (Applied Biosystems™, CA, USA) according to the manufacturer's specifications. Fluorescence data was collected during the extension phase (60° C.). The concentration response data for each sample was then normalised against the same data for control housekeeping gene, (18S) to quantify and generate gene expression data. All samples were done in at least duplicate. Primers were designed using the Primer-BLAST software (National Center for Biotechnology Information, USA). Primers contained, amplicons that cross exon-exon boundaries to prevent amplification of genomic DNA. […]

Compound: CC(C)C[C@H](NC(=O)c1c[nH]c2ccccc12)c1nc(C(=O)N[C@@H](CCCNC(=N)N)C(=O)O)co1 [Compound 8, 3-Indole Carboxylic Acid-Leucine-Oxazole-Arginine-OH]
- pIC50 ± SEM [1]: 8.03 ± 0.05
- IC50 ([1]; read-out: IC50 (converted)): 9 nM
- Induction of gene expression of IL1B, IL8, CCL3, EGR1, FOSB and TNF [2]: significantly induce gene expression; also recorded: induced expression of inflammatory genes
